Test system: retinoblastoma (RB) protein phosphorylation
Experiment: immunopurification of RB from Ramos cells
Assay type: cell-based, human
Experimental: For immunopurification (IP) the Dynabeads^TM Protein G Immunoprecipitation kit from Invitrogen (#10007D) was used. For IP, 2 × 10^6 cells were seeded in a 24-well plate and treated with the appropriate compound. After incubation, cells were lysed with NP-40 containing lysis buffer (Hepes-NaOH 50 mM pH 7.5, NaCl 150 mM, NP-40 1% v/v, MgCl2 2.5 mM, 1x Protease inhibitor (cOmplete^TM, EDTA-free Protease Inhibitor Cocktail), 1x Phosphatase Inhibitor (PhosSTOP^TM)) for 30 min. A protein content of 50 µg per IP was used, the protein concentration was measured by Bradford assay (Bio-Rad #5000006) with the photometer. Protein G is conjugated to the magnetic Dynabeads^TM. In the first step, the Dynabeads^TM were incubated for 10 min with the specific RB antibody (Abcam #ab181616; rabbit), which was used in a dilution of 1:80. The antibody bound to the conjugated protein G and a bead-antibody complex was formed. By placing the tube on a magnet, the beads were easily separated from the solution and the supernatant could be removed. The bead-antibody complex was washed once with Ab binding and washing buffer. In the second step, the cell lysate was incubated for 10 min with the bead-antibody complex to allow the RB protein from the lysate to bind to the antibody. The bead complex was washed several times with washing buffer by placing the tube on the magnet and removing the supernatant. […]

COc1ccnc2[nH]cc(-c3cc(N)nc(N)c3)c12 [meriolin 16]
phosphorylation of RB at p-Ser612 and p-Thr821 (immunopurified RB) (1 µM, 4 h): less phosphorylated
phosphorylation of RB at p-Ser612 and p-Thr821 (immunopurified RB) (24 h): completely abrogated
